Measurements from patent publication US6538000B1, “Tricyclic dihydropyrimidine potassium channel openers” (Abbott Laboratories, priority 1999, dated 2003).

What was measured:
[1] = target: potassium channels (Sus scrofa, UniProt F1SR11); assay: Functional potassium channel opening activity in isolated bladder strips (field-stimulated twitch); set-up: species or system Landrace pig; conditions: for Emax: pig, read-out: Efficacy (% P1075), Landrace pig bladder strips, maximal efficacy relative to P1075
Procedure: Compounds of the present invention were evaluated for functional potassium channel opening activity using tissue strips obtained from Landrace pig bladders.
Landrace pig bladders were obtained from female Landrace pigs of 9-30 kg. Landrace pigs were euthanized with an intraperitoneal injection of pentobarbital solution, Somlethal®, J. A. Webster Inc., Sterling Mass. The entire bladder was removed and immediately placed into Krebs Ringer bicarbonate solution (composition, mM: NaCl, 120; NaHCO3, 20; dextrose, 11; KCl, 4.7; CaCl2, 2.5; MgSO4, 1.5; KH2PO4, 1.2; K2EDTA, 0.01, equilibrated with 5% CO2/95% O2 pH 7.4 at 37° C.). Propranolol (0.004 mM) was included in all of the assays to block β-adrenoceptors. The trigonal and dome portions were discarded. Strips 3-5 mm wide and 20 mm long were prepared from the remaining tissue cut in a circular fashion. The mucosal layer was removed. One end was fixed to a stationary glass rod and the other to a Grass FT03 transducer at a basal preload of 1.0 gram. Two parallel platinum electrodes were included in the stationary glass rod to provide field stimulation of 0.05 Hz, 0.5 milli-seconds at 20 volts. This low frequency stimulation produced a stable twitch response of 100-500 centigrams. Tissues were allowed to equilibrate for at least 60 minutes and primed with 80 mM KCl. A control concentration response curve (cumulative) was generated for each tissue using the potassium channel opener P1075 as the control agonist. […] After a 60 minute rinsing period, a concentration response curve (cumulative) was generated for the test agonist in the same fashion as that used for the control agonist P1075. The maximal efficacy of each compounds (expressed as % relative to P1075) is reported. […] Agonist potencies were also expressed as an index relative to P1075. The index was calculated by dividing the ED50 for P1075 by the ED50 for the test agonist in a given tissue. […]

[2] = target: potassium channels (Cavia porcellus, UniProt A0A286XYR9); assay: Membrane hyperpolarization (MHP) assay, DiBAC(4)3 FLIPR, primary cultured guinea-pig urinary bladder (GPB) cells; format: cell-based
Chain of potassium channels (Cavia porcellus, UniProt A0A286XYR9) (A0A286XYR9 1-1546): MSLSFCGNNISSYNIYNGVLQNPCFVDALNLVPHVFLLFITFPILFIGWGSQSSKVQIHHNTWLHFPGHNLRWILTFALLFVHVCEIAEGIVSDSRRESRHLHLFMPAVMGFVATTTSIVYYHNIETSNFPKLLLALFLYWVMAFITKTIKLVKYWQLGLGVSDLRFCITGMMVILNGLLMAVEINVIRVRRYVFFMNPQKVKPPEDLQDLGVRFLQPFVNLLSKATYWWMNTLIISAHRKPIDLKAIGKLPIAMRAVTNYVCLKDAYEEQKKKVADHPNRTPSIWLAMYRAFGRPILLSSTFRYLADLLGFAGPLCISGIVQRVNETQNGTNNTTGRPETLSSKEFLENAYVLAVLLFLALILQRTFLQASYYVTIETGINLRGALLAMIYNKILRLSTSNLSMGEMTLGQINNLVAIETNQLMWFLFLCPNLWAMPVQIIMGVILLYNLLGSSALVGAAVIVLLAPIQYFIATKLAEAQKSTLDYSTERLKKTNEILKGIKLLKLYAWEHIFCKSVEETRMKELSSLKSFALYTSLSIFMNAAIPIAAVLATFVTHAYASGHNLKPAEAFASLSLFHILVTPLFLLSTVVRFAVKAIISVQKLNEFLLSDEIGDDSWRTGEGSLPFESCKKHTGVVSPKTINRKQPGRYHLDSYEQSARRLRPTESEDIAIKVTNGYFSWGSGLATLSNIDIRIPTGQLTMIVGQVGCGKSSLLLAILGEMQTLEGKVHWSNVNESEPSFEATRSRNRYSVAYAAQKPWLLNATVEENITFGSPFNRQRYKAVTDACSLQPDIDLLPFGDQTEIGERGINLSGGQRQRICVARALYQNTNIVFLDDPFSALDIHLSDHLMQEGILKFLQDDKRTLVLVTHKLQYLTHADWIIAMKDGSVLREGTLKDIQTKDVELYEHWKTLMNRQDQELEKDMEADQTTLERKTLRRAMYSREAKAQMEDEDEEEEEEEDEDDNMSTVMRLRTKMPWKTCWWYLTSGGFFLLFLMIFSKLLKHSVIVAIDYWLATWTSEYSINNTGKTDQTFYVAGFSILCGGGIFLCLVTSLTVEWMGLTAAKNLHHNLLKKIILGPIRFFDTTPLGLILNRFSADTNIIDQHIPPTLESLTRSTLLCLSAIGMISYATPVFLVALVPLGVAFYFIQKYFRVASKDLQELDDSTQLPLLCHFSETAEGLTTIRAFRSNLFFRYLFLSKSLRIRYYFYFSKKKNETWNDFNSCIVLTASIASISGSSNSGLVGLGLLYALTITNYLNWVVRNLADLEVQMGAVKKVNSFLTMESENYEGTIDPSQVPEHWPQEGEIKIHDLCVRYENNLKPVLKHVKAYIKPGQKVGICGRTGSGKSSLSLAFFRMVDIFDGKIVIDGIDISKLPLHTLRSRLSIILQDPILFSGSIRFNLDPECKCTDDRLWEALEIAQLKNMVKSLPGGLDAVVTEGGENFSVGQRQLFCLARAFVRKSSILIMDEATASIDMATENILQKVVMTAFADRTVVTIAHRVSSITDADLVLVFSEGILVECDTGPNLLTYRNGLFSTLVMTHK
Chain of potassium channels (Cavia porcellus, UniProt A0A286XYR9) (Q9JHJ9 whole entry partner): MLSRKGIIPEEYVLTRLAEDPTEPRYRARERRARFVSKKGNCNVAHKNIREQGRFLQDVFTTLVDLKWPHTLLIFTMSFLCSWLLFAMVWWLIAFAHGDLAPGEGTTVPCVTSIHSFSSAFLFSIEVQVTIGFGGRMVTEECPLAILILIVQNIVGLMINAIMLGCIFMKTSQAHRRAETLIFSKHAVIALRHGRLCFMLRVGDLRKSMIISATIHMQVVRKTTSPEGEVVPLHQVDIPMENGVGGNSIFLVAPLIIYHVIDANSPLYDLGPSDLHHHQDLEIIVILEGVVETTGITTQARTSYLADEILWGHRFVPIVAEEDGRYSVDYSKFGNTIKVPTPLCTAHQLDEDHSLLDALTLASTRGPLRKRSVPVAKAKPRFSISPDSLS
Procedure: Compounds were evaluated for potassium channel opening activity using primary cultured guinea-pig urinary bladder (GPB) cells.
For the preparation of urinary bladder smooth muscle cells, urinary bladders were removed from male guinea-pigs (Hartley, Charles River, Wilmington, Mass.) weighing 300-400 g and placed in ice-cold Ca^2+-free Krebs solution (Composition, mM: KCl, 2.7; KH2PO4, 1.5; NaCl, 75; Na2HPO4, 9.6; Na2HPO4.7H2O, 8; MgSO4, 2; glucose, 5; HEPES, 10; pH 7.4). Cells were isolated by enzymatic dissociation as previously described with minor modifications in (Klockner, U. and Isenberg, G., Pflugers Arch. 1985, 405, 329-339), hereby incorporated by reference. […]
Functional activity at potassium channels was measured by evaluating changes in membrane potential using the bis-oxonol dye DiBAC(4)3 (Molecular Probes) in a 96-well cell-based kinetic assay system, Fluorescent Imaging Plate Reader (FLIPR) (K. S. Schroeder et al., J. Biomed. Screen., v. 1 pp. 75-81 (1996)), hereby incorporated by reference. […] With increasing membrane potential (for example, K^+ depolarization), the probe further partitions into the cell; this is measured as an increase in fluorescence due to dye interaction with intracellular lipids and proteins. Conversely, decreasing membrane potential (hyperpolarization by potassium channel openers) evokes a decrease in fluorescence. […]

## O=C1CCCC2=C1C(c1ccc(F)c(Br)c1)n1nccc1N2 (single isomer, unassigned; (-)) [Example 15, (−) 9-(3-Bromo-4-fluorophenyl)-5,6,7,9-tetrahydropyrazolo[5,1-b]quinazolin-8(4H)-one]
[1]
  Emax: 100%

## O=C1CCCC2=C1C(c1ccc(Br)c(F)c1)n1nccc1N2 (stereo not drawn) [Example 1, 9-(4-Bromo-3-fluorophenyl)-5,6,7,9-tetrahydropyrazolo[5,1-b]quinazolin-8(4H)-one]
[1]
  Emax: 96%

## O=C1CSCC2=C1C(c1ccc(F)c(Br)c1)n1nccc1N2 (stereo not drawn) [Example 2, 9-(3-Bromo-4-fluorophenyl)-5,9-dihydro-4H-pyrazolo[1,5-a]thiopyrano[3,4-d]pyrimidin-8(7H)-one]
other
  melting point: 160 to 163 °C

## O=C1CCCC2=C1C(c1ccc(Cl)c(Cl)c1)n1ncc(Br)c1N2 (stereo not drawn) [Example 48, 3-Bromo-9-(3,4-dichlorophenyl)-5,6,7,9-tetrahydropyrazolo[5.1-b]quinazolin-8(4H)-one]
[2]; maximal steady-state hyperpolarization in GPB cells, normalized to 10 μM P1075 = 100%
  Maximal Response (% P1075): 113 % P1075
[2]; membrane hyperpolarization in GPB cells, concentration that elicits 50% of the maximal response for the test sample
  EC50: 33 nM

## CCC(C)(C)NC(=NC#N)Nc1cccnc1 [Example P1075, N″-cyano-N-(tert-pentyl)-N′-(3-pyridinyl)guanidine, reference compound]
[1]; field stimulation 0.05 Hz, 0.5 ms, 20 volts, P1075 10^−9 to 10^−5 M
  effect on stimulated twitch / stimulated contractions of the bladder: completely eliminated the stimulated twitch
